CC50 and IC50 data for 2 compounds are collected here from patent EP0984967B1, “NAPHTHYRIDINE DERIVATIVES AND THEIR ANALOGUES INHIBITING CYTOMEGALOVIRUS” (BIOCHEM PHARMA INC, priority 1996, dated 1997).

Common to all, as to assay type: cell-based
For series [1], the system named is Vero-34 cells, Hs-68 or Wi-38 cells. The experiment in a line: Cytotoxicity assay ([3H]-methyl thymidine incorporation, cell proliferation). To be noted: 50% inhibitory concentration of cell proliferation, 48 hours with compound then 18 hours [3H]-methyl thymidine; cell line not given. As to the method:
(§1) The cytotoxicity of test compounds was evaluated according to the following procedure: Flat bottom 96 well plates were plated with 5X10E3 Vero-34 cells/well and 1X10E4 Hs-68 or Wi-38 cells/well respectively and incubated overnight at 37°C and 5% CO2/air. After incubation, the supernatant medium was removed and replaced with test compound dilutions in 2% DMEM (150ul). The cells were then incubated 48 hours in a 5% CO2 incubator at 37°C. […] Cells were then collected onto a fiberglass filter (Printed Filtermat A 1450-421 Wallac) with a Tomtec cell harvester. Suspended cells were collected directly onto filter while for adherent cells, the medium was first removed, then the cells washed with PBS and trypsinized for 2-3 minutes (50µl trypsin/well) before collecting. Filters were dried for 1 hour at 37-40°C and then placed into bags (1450-microbeta # 1450-432 Wallac) with 4.5ml of Betascint and counts obtained with Microbeta 1450 Wallac (protocol 1). The percent of cell proliferation was determined by comparison to the control (no test compound) and thereby establishing 50% inhibitory concentration is established.
For orientation: Uptake of a labelled nucleoside into DNA is a usual measure of proliferation.

Assay in series [2]: as above
To be noted: vero-34, hs-68 or wi-38; 50% inhibitory concentration of cell proliferation, 48 hours with compound then 18 hours [3H]-methyl thymidine; cell line not given. As to the method: as §1

For series [3], the system named is HCMV virus. Nature of the series: CMV plaque reduction assay. Conditions: Human betaherpesvirus 5, 192 h; plaque reduction, HCMV in Hs68 cells (human foreskin fibroblast cell line), 8 days at 37°C. As to the method: The anti-CMV activity of test compounds was evaluated in a plaque reduction assay as follows: In 12-well tissue culture dishes, 1.5X10E5 or Hs68 cells (human […] fibroblast cell line) were plated per well with 2 ml of DMEM 10% fetal bovine serum and incubated in 5% CO2/air at 37°C overnight or until cells were ready. The medium was then removed and the cells inoculated with 0.5 ml (containing 200 pfu/ml diluted in DMEM 2% FBS) of HCMV virus in each well. After adsorption at 37°C for 2 hours, the virus was removed and cell monolayers were overlaid (1ml) with DMEM 2% FBS containing test compounds at various concentrations. The cells were then incubated at 37°C for 8 days, and then fixed with one volume (1ml) of formaldehyde 8%/water or PBS 1X for 30 minutes. The formaldehyde solution was removed and the cell monolayers were stained with crystal violet 2%/EtOH 20% for a few seconds and then rinsed with water. Monolayers were examined for the presence of plaques under a microscope, the percentage of plaque reduction determined for each compound by comparison with the untreated cells (no test compound) and the 50% inhibitory concentration (IC50) established. Ganciclovir was used as a positive control. Note: DMEM medium contained 1% glutamine and 1% pen/strep
On the technique in general: In a plaque reduction assay, fewer plaques than in the control indicate reduced infectivity or spread.

Regarding “N-(2propoxybenzyl)-2-[1,6]naphthyridine-2-carboxamide [compound #26]”, the CC50 (usually the concentration giving 50% cytotoxicity) in series [1] is roughly 1.5 µg/mL.

Regarding `O=C(NCc1ccccc1C(F)(F)F)c1ccc2cnccc2n1` [compound #13, N-(2-trifluoromethylbenzyl)-2-(1,6)naphthyridinecarboxamide], in series [2], the CC50 at 48 h is greater than 100 µg/mL. The IC50 (in general, the midpoint of a concentration-inhibition curve) in series [3] was less than 5 µg/mL.
